Results from US20240041840A1 (Areteia Therapeutics, Inc., priority 2020, published 2024).
Where two headings read alike, the source gives them in different places.

Tested on: subjects with eosinophilic asthma
Method: Pulmonary function is measured by performing a spirometry, which measures forced expiratory volume in is (FEV1), the volume of air moved in the first second of exhalation, this is a well-accepted measure of asthma. Forced vital capacity (FVC) is the total volume of air exhaled during the entire forced expiratory volume (FEV) test. The FEV1/FVC ratio is a calculated measure that may provide a more specific measure of bronchoconstriction, independent of processes such as air trapping. Pulmonary function testing can be tested pre-bronchodilator (after waiting a sufficient time so that all bronchodilator medications have cleared) or post-bronchodilator, typically 15-30 minutes after inhaling a short-acting bronchodilator, such as albuterol. Bronchodilator reversibility (BDR) is calculated and assessed by analyzing FEV1 pre- and post-bronchodilator, and calculating the change both as absolute (ml) and percentage change.
Evaluation of Efficacy: Blood eosinophil count, changes in pulmonary function (FEV1), Asthma Control Questionnaire (ACQ-6), Asthma Control Questionnaire (ACQ-7), Asthma Quality of Life Questionnaire (AQLQ), exhaled nitric oxide, pharyngeal and nasal eosinophil peroxidase were collected periodically during the study.
To control the alpha level for testing 3 dose groups versus placebo for the primary endpoint and for testing FEV1, a closed hierarchical testing procedure was used in the following order: 1. First, the 300 mg/day dose group was tested versus placebo for change in blood absolute eosinophil count, and if this reached the <0.05 level then, 2. the 150 mg/day dose group was tested versus placebo at the 0.05 level for change in blood absolute eosinophil count, and if this reached the <0.05 level then, 3. the pooled 150 and 300 mg/day dose groups were tested versus placebo at the 0.05 level for change in FEV1 at Week 12, then 4. the 75 mg/day dose group was tested versus placebo at the 0.05 level for change in blood absolute eosinophil count, and if this reached the <0.05 level.

[1] = 300 mg/day, Table 6D, timepoint printed as Analysis Baseline*
[2] = 300 mg/day, Table 6D, timepoint printed as Week 4
[3] = Week 4, pooled dexpramipexole arms, <50% AEC reduction at Week 12
[4] = Week 4, pooled dexpramipexole arms, ≥50% AEC reduction at Week 12
[5] = Week 8, pooled dexpramipexole arms, ≥50% AEC reduction at Week 12
[6] = Week 12, pooled dexpramipexole arms, <50% AEC reduction at Week 12
[7] = Week 12, pooled dexpramipexole arms, ≥50% AEC reduction at Week 12
[8] = Week 16 or Week 18, pooled dexpramipexole arms, ≥50% AEC reduction at Week 12

## CCCN[C@@H]1CCc2nc(N)sc2C1 [dexpramipexole, (6R)-2-amino-4,5,6,7-tetrahydro-6-(propylamino) benzothiazole]
150 mg/day, Week 8
  Pre-Bronchodilator FEV1, % change from Baseline, mean: 7.57%
150 mg/day, Week 12
  FEV1 change from Baseline LSM: 0.0601 L
  Pre-Bronchodilator FEV1, % change from Baseline, mean: 3.14%
150 mg/day, Week 16 or Week 18
  FEV1 difference versus Placebo LSM: 0.161 L
  Pre-Bronchodilator FEV1, % change from Baseline, mean: 7.71%
150 mg/day, Weeks 4, 8, 12, & 16/18 pooled
  ΔFEV1 vs Placebo LSM (SEM), pooled data: 126 mL
300 mg/day arm, averaged Week 8 through Week 16/18
  Placebo-corrected FEV1 increase from baseline: counts. In the 300 mg/day arm, placebo-corrected FEV1 increased more than 200 mL from baseline, averaged
[1]
  Pre-Bronchodilator FEV1 % change, mean: 15.5%
  Pre-Bronchodilator FEV1 % change, median: 10.5%
  Pre-Bronchodilator FEV1 change, mean: 0.277 L
  Pre-Bronchodilator FEV1 change, median: 0.250 L
  Pre-Bronchodilator FEV1 observed, mean: 2.32 L
  Pre-Bronchodilator FEV1 observed, median: 2.40 L
[2]
  Pre-Bronchodilator FEV1 % change, mean: 12.5%
  Pre-Bronchodilator FEV1 % change, median: 10.0%
  Pre-Bronchodilator FEV1 change, mean: 0.236 L
  Pre-Bronchodilator FEV1 change, median: 0.210 L
  Pre-Bronchodilator FEV1 observed, mean: 2.29 L
  Pre-Bronchodilator FEV1 observed, median: 2.45 L
300 mg/day, Week 4
  FEV1 change from Baseline LSM: 0.0685 L
  FEV1 difference versus Placebo LSM: 0.0838 L
  Pre-Bronchodilator FEV1 % change, median: 3.95%
  Pre-Bronchodilator FEV1, % change from Baseline, mean: 1.42%
  Pre-Bronchodilator FEV1 change, mean: 0.0417 L
  Pre-Bronchodilator FEV1 change, median: 0.0700 L
  Pre-Bronchodilator FEV1 observed, mean: 2.14 L
  Pre-Bronchodilator FEV1 observed, median: 2.16 L
  Pre-Bronchodilator Percent Predicted FEV1 % change, mean: 1.42%
  Pre-Bronchodilator Percent Predicted FEV1 % change, median: 3.94%
  Pre-Bronchodilator Percent Predicted FEV1 change, mean: 0.607%
  Pre-Bronchodilator Percent Predicted FEV1 change, median: 2.34%
  Pre-Bronchodilator Percent Predicted FEV1 observed, mean: 62.5%
  Pre-Bronchodilator Percent Predicted FEV1 observed, median: 62.3%
300 mg/day, Week 8
  FEV1 change from Baseline LSM: 0.248 L
  FEV1 difference versus Placebo LSM: 0.254 L
  Pre-Bronchodilator FEV1, % change from Baseline, mean: 15.5%
300 mg/day, Week 12
  FEV1 change from Baseline LSM: 0.209 L
  FEV1 difference versus Placebo LSM: 0.162 L
  Pre-Bronchodilator FEV1, % change from Baseline, mean: 12.5%
300 mg/day, Week 16 or Week 18
  FEV1 change from Baseline LSM: 0.207 L
  FEV1 difference versus Placebo LSM: 0.240 L
  Pre-Bronchodilator FEV1, % change from Baseline, mean: 10.8%
300 mg/day, Weeks 4, 8, 12, & 16/18 pooled
  ΔFEV1 vs Placebo LSM (SEM), pooled data: 185 mL
150 and 75 mg/day arms
  Improvement in FEV1: Week 8 through Week 16/18. Substantial improvements in FEV1 were also seen in the 150 and 75 mg/day arms.
All Dex arms pooled, Week 4
  ΔFEV1 vs Placebo LSM (SEM), pooled data: 138 mL
All Dex arms pooled, Week 8
  ΔFEV1 vs Placebo LSM (SEM), pooled data: 212 mL
All Dex arms pooled, Week 12
  ΔFEV1 vs Placebo LSM (SEM), pooled data: 99 mL
All Dex arms pooled, Week 16/18
  ΔFEV1 vs Placebo LSM (SEM), pooled data: 233 mL
All Dex arms pooled, Weeks 4, 8, 12, & 16/18 pooled
  ΔFEV1 vs Placebo LSM (SEM), pooled data: 173 mL
Table 5, FIG. 3, FIG. 6
  Magnitude and statistical significance of FEV1 improvement from baseline compared with other drugs: comparable or greater than that demonstrated in phase 2 clinical trials of benralizumab and mepolizumab
[3]
  Pre-Bronchodilator FEV1 Change from Baseline LSM: 0.0742 L
  Pre-Bronchodilator FEV1 Difference versus Placebo LSM: 0.0859 L
[4]
  Pre-Bronchodilator FEV1 Change from Baseline LSM: 0.163 L
  Pre-Bronchodilator FEV1 Difference versus Placebo LSM: 0.175 L
Week 8, pooled dexpramipexole arms, <50% AEC reduction at Week 12
  Pre-Bronchodilator FEV1 Difference versus Placebo LSM: 0.132 L
[5]
  Pre-Bronchodilator FEV1 Change from Baseline LSM: 0.275 L
  Pre-Bronchodilator FEV1 Difference versus Placebo LSM: 0.276 L
[6]
  Pre-Bronchodilator FEV1 Change from Baseline LSM: 0.00797 L
  Pre-Bronchodilator FEV1 Difference versus Placebo LSM: -0.0448 L
[7]
  Pre-Bronchodilator FEV1 Change from Baseline LSM: 0.261 L
  Pre-Bronchodilator FEV1 Difference versus Placebo LSM: 0.208 L
Week 16 or Week 18, pooled dexpramipexole arms, <50% AEC reduction at Week 12
  Pre-Bronchodilator FEV1 Difference versus Placebo LSM: 0.169 L
[8]
  Pre-Bronchodilator FEV1 Change from Baseline LSM: 0.258 L
  Pre-Bronchodilator FEV1 Difference versus Placebo LSM: 0.287 L
All post-baseline time points (Table 12, FIG. 5)
  FEV1 in hematologic responders: significant increase
